Experimental data as given in PubChem BioAssay AID330 (DTP/NCI, 2004).
Several values for one entry are separate records, joined by “and”; a condition that tells them apart may be missing. Equal entries are not always repeated. Toxic doses and inconclusive results are not listed.

Tested on: P388 leukemia ip, CD2F1 mice, survival T/C
Test: NCI In Vivo Anticancer Drug Screen. Data for tumor model P388 Leukemia (intraperitoneal) in CD2F1 (CDF1) mice
Conditions: endpoint: median survival time, higher = longer survival
Method in brief: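 Mice carrying the transplanted tumor received test compound or vehicle. Survival was recorded in each group, and the value is the treated-group measurement divided by that of the vehicle-treated control group.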

[1] = dose: 50.0 mg/kg/injection, schedule: Q01DX009 (ip), vehicle: saline with Tween-80
[2] = dose: 100.0 mg/kg/injection, schedule: Q01DX009 (ip), vehicle: saline with Tween-80
[3] = dose: 200.0 mg/kg/injection, schedule: Q01DX009 (ip), vehicle: saline with Tween-80
[4] = dose: 400.0 mg/kg/injection, schedule: Q01DX009 (ip), vehicle: saline with Tween-80
[5] = dose: 50.0 mg/kg/injection, schedule: Q04DX003 (ip), vehicle: saline with Tween-80
[6] = dose: 100.0 mg/kg/injection, schedule: Q04DX003 (ip), vehicle: saline with Tween-80
[7] = dose: 50.0 mg/kg/injection, schedule: Q01DX009 (ip), vehicle: saline
[8] = dose: 50.0 mg/kg/injection, schedule: Q01DX005 (ip), vehicle: saline with Tween-80
[9] = dose: 100.0 mg/kg/injection, schedule: Q01DX005 (ip), vehicle: saline with Tween-80
[10] = dose: 200.0 mg/kg/injection, schedule: Q01DX005 (ip), vehicle: saline with Tween-80
[11] = dose: 50.0 mg/kg/injection, schedule: Q01DX005 (ip), vehicle: Klucel (hydroxypropylcellulose) (HPC)
[12] = dose: 100.0 mg/kg/injection, schedule: Q01DX005 (ip), vehicle: Klucel (hydroxypropylcellulose) (HPC)
[13] = dose: 200.0 mg/kg/injection, schedule: Q01DX005 (ip), vehicle: Klucel (hydroxypropylcellulose) (HPC)
[14] = dose: 12.5 mg/kg/injection, schedule: Q01DX009 (ip), vehicle: other
[15] = dose: 25.0 mg/kg/injection, schedule: Q01DX009 (ip), vehicle: other
[16] = dose: 50.0 mg/kg/injection, schedule: Q01DX009 (ip), vehicle: other
[17] = dose: 3.13 mg/kg/injection, schedule: Q01DX009 (ip), vehicle: saline
[18] = dose: 6.25 mg/kg/injection, schedule: Q01DX009 (ip), vehicle: saline
[19] = dose: 12.5 mg/kg/injection, schedule: Q01DX009 (ip), vehicle: saline
[20] = dose: 25.0 mg/kg/injection, schedule: Q01DX009 (ip), vehicle: saline
[21] = dose: 12.5 mg/kg/injection, schedule: Q01DX009 (ip), vehicle: saline with Tween-80
[22] = dose: 25.0 mg/kg/injection, schedule: Q01DX009 (ip), vehicle: saline with Tween-80

`CCn1c(=O)c2[nH]c(SC)nc2n(CC)c1=O` was tested, and the T/C (dose: 16.0 mg/kg/injection, schedule: Q01DX009 (ip), vehicle: Klucel (hydroxypropylcellulose) (HPC)) was 105 % of control, the T/C (dose: 32.0 mg/kg/injection, schedule: Q01DX009 (ip), vehicle: Klucel (hydroxypropylcellulose) (HPC)) was 107 % of control and the T/C (dose: 50.0 mg/kg/injection, schedule: Q01DX009 (ip), vehicle: Klucel (hydroxypropylcellulose) (HPC)) was 116 % of control. For the same compound, the T/C (dose: 64.0 mg/kg/injection, schedule: Q01DX009 (ip), vehicle: Klucel (hydroxypropylcellulose) (HPC)) was 104 % of control, the T/C (dose: 100.0 mg/kg/injection, schedule: Q01DX009 (ip), vehicle: Klucel (hydroxypropylcellulose) (HPC)) was 111 % of control and the T/C (dose: 200.0 mg/kg/injection, schedule: Q01DX009 (ip), vehicle: Klucel (hydroxypropylcellulose) (HPC)) was 100 % of control.

In the case of `C/C=C/C=C/C(=O)c1ccc(OC)cc1O`, the T/C [1] is reported as 103 % of control and 105 % of control, the T/C [2] is reported as 101 % of control and 103 % of control and the T/C [3] is reported as 101 % of control and 106 % of control. For the same compound, the T/C [4] was 106 % of control and 108 % of control.

For `COc1ccc(OC)c(C2N(Cc3ccccc3N(C)C)CCCN2Cc2ccccc2N(C)C)c1`, the T/C [5] was 91 % of control and the T/C [6] was 87 % of control.

`N=c1c(C(N)=O)cnc2n1CCCCC2` was tested, and the T/C (dose: 25.0 mg/kg/injection, schedule: Q04DX003 (ip), vehicle: saline) was 100 % of control, the T/C (dose: 50.0 mg/kg/injection, schedule: Q04DX003 (ip), vehicle: saline) was 100 % of control and the T/C (dose: 100.0 mg/kg/injection, schedule: Q04DX003 (ip), vehicle: saline) was 98 % of control.

`CN1CCCC(O)(C(=O)c2ccccc2)C1` (stereo not given) was tested, and the T/C [7] was 108 % of control, the T/C (dose: 100.0 mg/kg/injection, schedule: Q01DX009 (ip), vehicle: saline) was 90 % of control and the T/C (dose: 100.0 mg/kg/injection, schedule: Q04DX003 (ip), vehicle: Klucel (hydroxypropylcellulose) (HPC)) was 102 % of control. For the same compound, the T/C (dose: 200.0 mg/kg/injection, schedule: Q01DX009 (ip), vehicle: saline) was 90 % of control and the T/C (dose: 200.0 mg/kg/injection, schedule: Q04DX003 (ip), vehicle: Klucel (hydroxypropylcellulose) (HPC)) was 104 % of control.

In the case of `O=C(c1ccc(Br)cc1)c1cnc2nc(-c3ccccc3)c(-c3ccccc3)nn12`, the T/C [8] is reported as 91 % of control, the T/C [9] is reported as 96 % of control and the T/C [10] is reported as 96 % of control.

For `Oc1ccc(N=C2N=c3c(c4ccccc4c4ccccc34)=N2)c2ccccc12`, the T/C (dose: 25.0 mg/kg/injection, schedule: Q01DX005 (ip), vehicle: saline with Tween-80) was 98 % of control, the T/C [8] was 100 % of control and the T/C [9] was 100 % of control. For the same compound, the T/C [10] was 107 % of control.

With `CC(=O)OC(OC(C)=O)C(CSC#N)SC#N` (stereo not given) the T/C (dose: 6.25 mg/kg/injection, schedule: Q01DX005 (ip), vehicle: Klucel (hydroxypropylcellulose) (HPC)) was 99 % of control, the T/C (dose: 12.5 mg/kg/injection, schedule: Q01DX005 (ip), vehicle: Klucel (hydroxypropylcellulose) (HPC)) was 99 % of control and the T/C (dose: 25.0 mg/kg/injection, schedule: Q01DX005 (ip), vehicle: Klucel (hydroxypropylcellulose) (HPC)) was 99 % of control. The T/C [11] was 102 % of control, the T/C [12] was 96 % of control and the T/C [13] was 113 % of control.

In the case of `CCOC(=O)C/[N+]([O-])=C/c1ccccc1`, the T/C [14] is reported as 100 % of control, the T/C [15] is reported as 98 % of control and the T/C [16] is reported as 117 % of control. The T/C (dose: 100.0 mg/kg/injection, schedule: Q01DX009 (ip), vehicle: other) was 100 % of control and the T/C (dose: 200.0 mg/kg/injection, schedule: Q01DX009 (ip), vehicle: other) was 100 % of control.

With `C[n+]1cccc(C2=CCCC2)c1` the T/C [17] was 109 % of control, the T/C [18] was 100 % of control and the T/C [19] was 100 % of control. The T/C (dose: 12.5 mg/kg/injection, schedule: Q04DX003 (ip), vehicle: water) was 102 % of control, the T/C [20] was 100 % of control and the T/C (dose: 25.0 mg/kg/injection, schedule: Q04DX003 (ip), vehicle: saline with Tween-80) was 93 % of control. The T/C (dose: 25.0 mg/kg/injection, schedule: Q04DX003 (ip), vehicle: water) was 97 % of control, the T/C [5] was 92 % of control and the T/C [6] was 97 % of control. For the same compound, the T/C (dose: 200.0 mg/kg/injection, schedule: Q04DX003 (ip), vehicle: saline with Tween-80) was 105 % of control.

In the case of `Cc1ccc(S(=O)(=O)OCC2OC(OC3(CO)OC(COS(=O)(=O)c4ccc(C)cc4)C(O)C3O)C(O)C(O)C2O)cc1` (stereo not given), the T/C [1] is reported as 100 % of control, the T/C [2] is reported as 98 % of control and the T/C [3] is reported as 99 % of control.

For `O=C(CCCl)Nc1cccc(CCC(=O)c2ccccc2NC(=O)CCCl)c1`, the T/C (dose: 60.0 mg/kg/injection, schedule: Q01DX005 (ip), vehicle: saline with Tween-80) was 89 % of control, the T/C (dose: 120.0 mg/kg/injection, schedule: Q01DX005 (ip), vehicle: saline with Tween-80) was 93 % of control and the T/C (dose: 240.0 mg/kg/injection, schedule: Q01DX005 (ip), vehicle: saline with Tween-80) was 88 % of control.

For `Cc1cc(Br)c2ccccc2c1NS(=O)(=O)c1ccccc1`, the T/C [2] was 100 % of control, the T/C [3] was 100 % of control and the T/C [4] was 90 % of control.

For `CC(=O)c1c(-c2ccc(F)cc2)c(-c2ccc(F)cc2)nn(CCO)c1=O`, the T/C [8] was 98 % of control, the T/C [9] was 100 % of control and the T/C [10] was 98 % of control.

`COc1cc2c(cc1O)C(CSC)Cc1cc3c(cc1N(C)CC2)OCO3` (stereo not given) was tested, and the T/C [21] was 100 % of control, the T/C [22] was 100 % of control and the T/C [1] was 102 % of control. The T/C [2] was 88 % of control and the T/C [3] was 95 % of control.

With `COc1cccc2c1C(=O)c1c(O)c3c(c(O)c1C2=O)C[C@@](O)(C(C)=O)C[C@@H]3OC1CC(NC(C)=O)C(O)C(C)O1` (stereo not given in full) the T/C (dose: 2.0 mg/kg/injection, schedule: Q01DX009 (ip), vehicle: saline) was 113 % of control, the T/C [17] was 157 % of control and the T/C [18] was 109 % of control. For the same compound, the T/C [19] was 166 % of control.

In the case of `O=C1C(CCl)(CCl)CCC12CNC(Cl)(Cl)C2` (stereo not given), the T/C [8] is reported as 97 % of control, the T/C [9] is reported as 97 % of control and the T/C [10] is reported as 102 % of control.

For `COc1cc(C2c3cc(O)c(OC)cc3CC(C(=O)O)C2CO)ccc1O` (stereo not given), the T/C [8] was 100 % of control, the T/C [9] was 97 % of control and the T/C [10] was 98 % of control.

With `C=CC(=O)OC1CC(O)C2(C)CC3C(=C)C(=O)OC3CC(C)C12` (stereo not given) the T/C (dose: 100.0 mg/kg/injection, schedule: Q04DX002 (ip), vehicle: saline with Tween-80) was 107 % of control, the T/C (dose: 200.0 mg/kg/injection, schedule: Q04DX002 (ip), vehicle: saline with Tween-80) was 110 % of control and the T/C (dose: 400.0 mg/kg/injection, schedule: Q04DX002 (ip), vehicle: saline with Tween-80) was 109 % of control.

`CC1(C(F)(F)F)CC(=O)NN1` (stereo not given) was tested, and the T/C [20] was 104 % of control and the T/C [7] was 118 % of control.

In the case of `Cc1ccc(S(=O)(=O)N(C=O)c2ccccc2)cc1`, the T/C [1] is reported as 90 % of control and the T/C [2] is reported as 90 % of control.

In the case of `COC(=O)/C(C#N)=C/c1ccc(NC(C)=O)cc1`, the T/C [11] is reported as 93 % of control, the T/C [12] is reported as 94 % of control and the T/C [13] is reported as 88 % of control.

For `COc1cc(/C=C(/NC(=O)c2ccccc2)C(O)=C(C#N)C#N)ccc1O`, the T/C (dose: 60.0 mg/kg/injection, schedule: Q01DX005 (ip), vehicle: saline) was 95 % of control and the T/C (dose: 120.0 mg/kg/injection, schedule: Q01DX005 (ip), vehicle: saline) was 91 % of control.

`CN(C)c1ccc(CN(Cc2ccccc2)CC(O)c2ccccc2)cc1` (stereo not given) was tested, and the T/C (dose: 6.25 mg/kg/injection, schedule: Q01DX009 (ip), vehicle: saline with Tween-80) was 97 % of control, the T/C [21] was 100 % of control and the T/C [22] was 100 % of control. For the same compound, the T/C [1] was 102 % of control.

In the case of `ClCSCc1ccccc1`, the T/C [14] is reported as 110 % of control, the T/C [15] is reported as 110 % of control and the T/C [16] is reported as 110 % of control.

With `O=C1NC(=O)C2C1C1C(=O)NC(=O)C21` (stereo not given) the T/C [22] was 94 % of control, the T/C [1] was 94 % of control and the T/C [2] was 103 % of control.

In the case of `O=c1c2ccccc2ccn1O`, the T/C [11] is reported as 97 % of control, the T/C [12] is reported as 89 % of control and the T/C [13] is reported as 89 % of control.
